Results: patent publication US10730874B2 (Shire Human Genetic Therapies, Inc., priority 2018, dated 2020)

Biological target: human activated kallikrein enzyme (plasma kallikrein) (Homo sapiens (Human), UniProt P03952)
Assay: Inhibition of human activated plasma kallikrein, fluorogenic peptide substrate assay, 500 pM enzyme format
Format: biochemical
Conditions: 500 pM activated kallikrein enzyme, 300 uM Pro-Phe-Arg-7-amido-4-methylcoumarin substrate, 30 min preincubation, 10 min at RT; read-out: Primary Dose Response Assay: Average EC50
Outline: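 Buffer 20 mM Tris pH 7.5, EDTA, NaCl, PEG-400, Triton X-100; 300 uM Pro-Phe-Arg-AMC; enzyme–inhibitor preincubation 30 min RT. Format one: 500 pM kallikrein, 10 min RT reaction; format two: 5 pM kallikrein, 18 h RT reaction. Fluorescence read at 460 nm (380 nm excitation).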

Chain of human activated kallikrein enzyme (plasma kallikrein) (P03952 391-638): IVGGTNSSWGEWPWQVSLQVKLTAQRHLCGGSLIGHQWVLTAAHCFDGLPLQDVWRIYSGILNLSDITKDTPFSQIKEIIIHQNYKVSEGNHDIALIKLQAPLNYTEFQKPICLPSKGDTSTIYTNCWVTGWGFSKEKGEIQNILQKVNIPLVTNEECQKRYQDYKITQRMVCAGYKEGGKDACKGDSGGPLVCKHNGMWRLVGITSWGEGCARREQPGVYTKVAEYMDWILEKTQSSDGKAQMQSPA
Chain of human activated kallikrein enzyme (plasma kallikrein) (P03952 20-390 partner): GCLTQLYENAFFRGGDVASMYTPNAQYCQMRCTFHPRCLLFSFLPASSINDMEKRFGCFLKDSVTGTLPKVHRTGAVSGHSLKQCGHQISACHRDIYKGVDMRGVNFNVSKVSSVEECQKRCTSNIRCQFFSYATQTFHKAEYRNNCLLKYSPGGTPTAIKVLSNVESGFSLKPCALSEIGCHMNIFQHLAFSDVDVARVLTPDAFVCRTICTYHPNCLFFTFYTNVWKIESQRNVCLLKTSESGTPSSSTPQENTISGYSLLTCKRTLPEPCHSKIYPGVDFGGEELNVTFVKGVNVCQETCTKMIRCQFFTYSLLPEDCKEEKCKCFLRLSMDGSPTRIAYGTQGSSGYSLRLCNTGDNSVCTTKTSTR

Compound	EC50
Cc1ccc2nc(Cn3cc(C(=O)NCc4ncn5ccc(Cl)cc45)cn3)cn2c1C [Example I-130]	10 to 100 nM
O=C(NCc1ncn2ccc(Br)c(F)c12)c1cn(Cc2cn3cc(C4CC4)ccc3n2)nn1 [Example I-134, N-((7-bromo-8-fluoroimidazo[1,5-a]pyridin-1-yl)methyl)-1-((6-cyclopropylimidazo[1,2-a]pyridin-2-yl)methyl)-1H-1,2,3-triazole-4-carboxamide]	< 1 nM
O=C(NCc1ncn2ccc(Br)c(F)c12)c1nnn(Cc2cn3cc(C4CC4)ccc3n2)n1 [Example I-135, N-((7-bromo-8-fluoroimidazo[1,5-a]pyridin-1-yl)methyl)-2-((6-cyclopropylimidazo[1,2-a]pyridin-2-yl)methyl)-2H-tetrazole-5-carboxamide]	< 1 nM
O=C(NCc1ncn2ccc(Br)c(F)c12)c1nnc(Cc2cn3cc(C4CC4)ccc3n2)o1 [Example I-136, N-((7-bromo-8-fluoroimidazo[1,5-a]pyridin-1-yl)methyl)-5-((6-cyclopropylimidazo[1,2-a]pyridin-2-yl)methyl)-1,3,4-oxadiazole-2-carboxamide]	< 1 nM
O=C(NCc1ncn2ccc(Cl)c(F)c12)c1nnc(Cc2cn3cc(C4CC4)ccc3n2)o1 [Example I-137, N-((7-chloro-8-fluoroimidazo[1,5-a]pyridin-1-yl)methyl)-5-((6-cyclopropylimidazo[1,2-a]pyridin-2-yl)methyl)-1,3,4-oxadiazole-2-carboxamide]	< 1 nM
O=C(NCc1ncn2ccc(Cl)cc12)c1nnc(Cc2cn3nc(C4CC4)ccc3n2)o1 [Example I-138, N-((7-chloroimidazo[1,5-a]pyridin-1-yl)methyl)-5-((6-cyclopropylimidazo[1,2-b]pyridazin-2-yl)methyl)-1,3,4-oxadiazole-2-carboxamide]	< 1 nM
O=C(NCc1ncn2ccc(Br)c(F)c12)c1cn(Cc2cn3nc(C4CC4)ccc3n2)nn1 [Example I-139, N-((7-bromo-8-fluoroimidazo[1,5-a]pyridin-1-yl)methyl)-1-((6-cyclopropylimidazo[1,2-b]pyridazin-2-yl)methyl)-1H-1,2,3-triazole-4-carboxamide]	< 1 nM
O=C(NCc1ncn2ccc(Br)c(F)c12)c1nnc(Cc2cn3nc(C4CC4)ccc3n2)o1 [Example I-140, N-((7-bromo-8-fluoroimidazo[1,5-a]pyridin-1-yl)methyl)-5-((6-cyclopropylimidazo[1,2-b]pyridazin-2-yl)methyl)-1,3,4-oxadiazole-2-carboxamide]	< 1 nM

Other lines, results leading:

EC50	Compound
< 1 nM	O=C(NCc1ncn2ccc(Cl)cc12)c1cnn(Cc2cn3cc(C4CC4)cnc3n2)c1 [Example I-129, N-((7-chloroimidazo[1,5-a]pyridin-1-yl)methyl)-1-((6-cyclopropylimidazo[1,2-a]pyrimidin-2-yl)methyl)-1H-pyrazole-4-carboxamide]
< 1 nM	N#Cc1cc(C2CC2)cn2cc(Cn3cc(C(=O)NCc4ncn5ccc(Br)c(F)c45)nn3)nc12 [Example I-131, N-((7-bromo-8-fluoroimidazo[1,5-a]pyridin-1-yl)methyl)-1-((8-cyano-6-cyclopropylimidazo[1,2-a]pyridin-2-yl)methyl)-1H-1,2,3-triazole-4-carboxamide]
< 1 nM	O=C(NCc1ncn2ccc(Cl)cc12)c1cnn(Cc2cn3cc(C4CC4)cc(C4COC4)c3n2)c1 [Example I-132, N-((7-chloroimidazo[1,5-a]pyridin-1-yl)methyl)-1-((6-cyclopropyl-8-(oxetan-3-yl)imidazo[1,2-a]pyridin-2-yl)methyl)-1H-pyrazole-4-carboxamide]
< 1 nM	O=C(NCc1ncn2ccc(Cl)cc12)c1cnn(Cc2cn3cc(C4CC4)cc(C4CC4C(=O)O)c3n2)c1 (stereo not drawn) [Example I-133, 2-(2-((4-(((7-chloroimidazo[1,5-a]pyridin-1-yl)methyl)carbamoyl)-1H-pyrazol-1-yl)methyl)-6-cyclopropylimidazo[1,2-a]pyridin-8-yl)cyclopropane-1-carboxylic acid]
